Test systems include A498; CAKI-1; CCRF-CEM; HL-60; HT-29; IGROV-1; MDA-MB-231; MDA-MB-435; NCI-H522; OVCAR-3; PC-3; SF-295; SK-MEL-28; SK-MEL-2; SK-OV-3; SNB-19; SR; SW-620; UO-31; RXF 393.
Holding throughout (test): inhibition of tumour cell growth, NCI panel, 48 h

The structures appear in SMILES notation.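 Method: 48-hour compound exposure of cells in 96-well plates, five concentrations, linear interpolation of endpoints. Here, GI50 denotes the concentration required for 50% inhibition of growth.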 Calls of active or inactive are those of the source. Cut-off read from the data, not from the text of the source: active = GI50 up to about 1.1 µM and inactive = higher.

As for `CCNC(=O)Cc1nc2c(N)ncnc2n1C1OC(CO)C(O)C1O` (stereo not given), the GI50 in the assay on A498 is > 100 µM (inactive); in the assay with CAKI-1 it was > 100 µM (inactive); in the assay on CCRF-CEM, > 10 µM (inactive); with HL-60 it was 91.4 µM (inactive); in the assay on HT-29, > 100 µM (inactive); with IGROV-1, > 100 µM (inactive). Further, the GI50 with MDA-MB-231, with MDA-MB-435, in the assay with NCI-H522, with OVCAR-3, with PC-3 and with SF-295 was > 100 µM (inactive) in each case. Moreover, the GI50 is > 100 µM (inactive) in the assay on SK-MEL-28; 48.6 µM (inactive) with SK-MEL-2; 39 µM (inactive) in the assay with SK-OV-3; > 100 µM (inactive) with SNB-19; > 100 µM (inactive) in the assay on SR; > 100 µM (inactive) in the assay on SW-620. The GI50 with UO-31 was > 100 µM (inactive).
As to `Oc1ccc(/N=C/c2ccc(/C=N/c3ccc(O)cc3)cc2)cc1`, the GI50 in the assay with A498 was 24.3 µM (inactive); in the assay with CAKI-1 it was 20 µM (inactive); in the assay on CCRF-CEM, 6.41 µM (inactive); in the assay with HT-29, 19.8 µM (inactive); in the assay on IGROV-1, 20 µM (inactive); in the assay with MDA-MB-231 it was 14.2 µM (inactive). Also, the GI50 is 16.3 µM (inactive) in the assay on MDA-MB-435; 17.7 µM (inactive) with NCI-H522; 16.3 µM (inactive) in the assay on OVCAR-3; 16.3 µM (inactive) in the assay on PC-3; 17.1 µM (inactive) in the assay with RXF 393; 16.8 µM (inactive) with SF-295. Moreover, the GI50 in the assay with SK-MEL-28 was 18.8 µM (inactive); with SK-MEL-2 it was 21.2 µM (inactive); in the assay on SK-OV-3, 16.9 µM (inactive); with SNB-19, 16 µM (inactive); in the assay on SR, 6.44 µM (inactive); in the assay with SW-620, 17.5 µM (inactive). Besides, the GI50 in the assay with UO-31 is 15.2 µM (inactive).
With `CC(=O)N1C(Nc2ccccn2)CCN1c1ccccc1` (stereo not given), the GI50 in the assay with CAKI-1, in the assay on CCRF-CEM, in the assay with HL-60, with HT-29, with IGROV-1 and in the assay on MDA-MB-231 was > 10 µM (inactive) each time. The GI50 in the assay with MDA-MB-435, in the assay with NCI-H522, with OVCAR-3, with PC-3, with RXF 393 and in the assay with SF-295 was > 10 µM (inactive) throughout. For the same compound, the GI50 with SK-MEL-28, in the assay on SK-MEL-2, in the assay on SK-OV-3, in the assay with SNB-19, in the assay with SR and with SW-620 was > 10 µM (inactive) throughout. In addition, the GI50 in the assay with UO-31 is > 10 µM (inactive).
As for `COc1ccc2c(c1)CCc1c(-c3noc4c3CCc3cc(OC)ccc3-4)noc1-2`, the GI50 with A498, in the assay on CAKI-1, in the assay on HL-60, in the assay on HT-29, in the assay with IGROV-1 and in the assay with MDA-MB-231 was > 100 µM (inactive) throughout. The GI50 with MDA-MB-435, with NCI-H522, in the assay on OVCAR-3, in the assay with PC-3, in the assay on RXF 393 and in the assay on SF-295 was > 100 µM (inactive) each time. In addition, the GI50 in the assay on SK-MEL-28, in the assay with SK-MEL-2, in the assay with SK-OV-3, in the assay on SNB-19, in the assay on SR and with SW-620 was > 100 µM (inactive) in each case. Moreover, in the assay with UO-31, the GI50 is > 100 µM (inactive).
Take `CN(C)C(=O)c1nnsc1NN=O`: the GI50 with CAKI-1, with CCRF-CEM, with HL-60, with HT-29, in the assay with IGROV-1 and in the assay on MDA-MB-231 was > 100 µM (inactive) each time. The GI50 in the assay with MDA-MB-435 was > 100 µM (inactive); in the assay with NCI-H522, > 100 µM (inactive); in the assay on OVCAR-3, 87.7 µM (inactive); in the assay with PC-3, > 100 µM (inactive); with RXF 393, > 100 µM (inactive); in the assay with SF-295 it was > 100 µM (inactive). In addition, the GI50 in the assay on SK-MEL-28, with SK-MEL-2, with SK-OV-3, with SNB-19, with SR and with SW-620 was > 100 µM (inactive) each time. In addition, in the assay on UO-31, the GI50 is > 100 µM (inactive).
As to `COc1cc(Cn2c3c(c4cc(O)ccc42)C(=O)c2ccccc2C3=O)cc(OC)c1`, the GI50 was 15.4 µM (inactive) in the assay with A498; 15.2 µM (inactive) with CAKI-1; 13.7 µM (inactive) in the assay on HL-60; 4.1 µM (inactive) in the assay with HT-29; 2.11 µM (inactive) in the assay with IGROV-1; 5.32 µM (inactive) in the assay on MDA-MB-231. Besides, the GI50 in the assay on MDA-MB-435 was 0.743 µM (active); with NCI-H522, 2.43 µM (inactive); with OVCAR-3, 20.6 µM (inactive); in the assay on PC-3, 2.46 µM (inactive); with RXF 393, 3.92 µM (inactive); in the assay on SF-295 it was 6.85 µM (inactive). Also, the GI50 in the assay with SK-MEL-28 was 7.96 µM (inactive); in the assay on SK-MEL-2, 14.7 µM (inactive); with SK-OV-3, 2.32 µM (inactive); in the assay on SNB-19, 4.5 µM (inactive); in the assay on SR, 0.494 µM (active); in the assay with SW-620, 16.7 µM (inactive). In addition, the GI50 in the assay with UO-31 was 4.32 µM (inactive).
As to `CN(C)CCCN1c2ccccc2CCc2cccc([N+](=O)[O-])c21`, the GI50 with A498 was 19.5 µM (inactive); with CAKI-1, 20 µM (inactive); in the assay with CCRF-CEM, 5.38 µM (inactive); with HL-60, 15.5 µM (inactive); in the assay with HT-29 it was 14.6 µM (inactive); in the assay with IGROV-1, 16.9 µM (inactive). Also, the GI50 is 25.2 µM (inactive) in the assay with MDA-MB-231; 16.7 µM (inactive) in the assay on MDA-MB-435; 15.8 µM (inactive) in the assay with NCI-H522; 16.3 µM (inactive) in the assay with OVCAR-3; 19.8 µM (inactive) with PC-3; 16.5 µM (inactive) in the assay on SF-295. Besides, the GI50 in the assay with SK-MEL-28 was 13.4 µM (inactive); in the assay on SK-MEL-2, 26.5 µM (inactive); in the assay on SK-OV-3, 28.6 µM (inactive); in the assay with SNB-19 it was 47.2 µM (inactive); in the assay on SR, 13.6 µM (inactive); in the assay on SW-620, 17.7 µM (inactive). For the same compound, the GI50 in the assay on UO-31 is 17.4 µM (inactive).
`CC(=O)c1c2c(cc3c1CC1(C3)Cc3cc4c(c(C(C)=O)c3C1)CCCC4)CCCC2`: the GI50 with A498 was > 100 µM (inactive); with CCRF-CEM, 7.19 µM (inactive); in the assay on HL-60 it was 15.8 µM (inactive); with HT-29, 63.2 µM (inactive); with IGROV-1 it was > 100 µM (inactive); in the assay on MDA-MB-231 it was > 100 µM (inactive). The GI50 with MDA-MB-435 was 57.7 µM (inactive); in the assay with NCI-H522 it was 74.6 µM (inactive); in the assay with OVCAR-3, 41.6 µM (inactive); with PC-3, 21.4 µM (inactive); in the assay on RXF 393 it was > 100 µM (inactive); in the assay on SF-295, > 100 µM (inactive). For the same compound, the GI50 was 19.7 µM (inactive) in the assay on SK-MEL-2, > 100 µM (inactive) in the assay on SK-OV-3, 16.3 µM (inactive) in the assay with SR and 0.104 µM (active) in the assay with UO-31.
Consider `O=C(O)c1ccccc1/C=C1/Nc2ccccc2C1=O`, for which the GI50 in the assay with A498 is > 100 µM (inactive); in the assay with CAKI-1, > 100 µM (inactive); with CCRF-CEM, 44.9 µM (inactive); in the assay with HL-60 it was 64 µM (inactive); in the assay on HT-29, 67.9 µM (inactive); in the assay on IGROV-1, 24.2 µM (inactive). Further, the GI50 in the assay with MDA-MB-231, in the assay on MDA-MB-435, in the assay with OVCAR-3, in the assay with PC-3, with RXF 393 and with SF-295 was > 100 µM (inactive) throughout. Moreover, the GI50 with SK-MEL-28 was > 100 µM (inactive); in the assay on SK-MEL-2, > 100 µM (inactive); in the assay with SK-OV-3 it was > 100 µM (inactive); in the assay on SNB-19 it was > 100 µM (inactive); in the assay with SR, 66.5 µM (inactive); in the assay on SW-620 it was 57.5 µM (inactive). For the same compound, in the assay with UO-31, the GI50 is 50 µM (inactive).
With `CN(C)CCNC(=O)c1cccc2c1Oc1cccc([N+](=O)[O-])c1O2`, the GI50 with A498 is 15 µM (inactive); with CAKI-1 it was 18.4 µM (inactive); in the assay with CCRF-CEM it was 29.6 µM (inactive); in the assay on HL-60, 17.1 µM (inactive); with HT-29 it was 15.2 µM (inactive); in the assay with IGROV-1, 18.9 µM (inactive). Moreover, the GI50 in the assay with MDA-MB-231 is 4.33 µM (inactive); in the assay with MDA-MB-435, 16.5 µM (inactive); in the assay on NCI-H522 it was 16.1 µM (inactive); in the assay with OVCAR-3 it was 20.8 µM (inactive); in the assay with PC-3 it was 15.4 µM (inactive); in the assay on SF-295 it was 17.5 µM (inactive). The GI50 in the assay on SK-MEL-28 is 18.8 µM (inactive); in the assay with SK-MEL-2, 23.5 µM (inactive); in the assay with SK-OV-3, 14 µM (inactive); in the assay with SNB-19, 30 µM (inactive); in the assay on SR, 21.1 µM (inactive); with SW-620, 19.3 µM (inactive). Moreover, in the assay with UO-31, the GI50 is 15.7 µM (inactive).
Consider `O=C(Cc1ccccc1)Nn1c(-c2ccccc2)nc2ccccc2c1=O`, for which the GI50 is 62.7 µM (inactive) with A498; > 100 µM (inactive) in the assay on CCRF-CEM; > 100 µM (inactive) in the assay on HL-60; > 100 µM (inactive) in the assay with HT-29; > 100 µM (inactive) with IGROV-1; > 100 µM (inactive) in the assay with MDA-MB-231. Besides, the GI50 in the assay on MDA-MB-435, in the assay on NCI-H522, in the assay on OVCAR-3, in the assay on PC-3, with RXF 393 and in the assay with SF-295 was > 100 µM (inactive) throughout. In addition, the GI50 in the assay with SK-MEL-28, in the assay on SK-OV-3, with SNB-19, with SR, in the assay on SW-620 and in the assay with UO-31 was > 100 µM (inactive) throughout.

Source of the values: ChEMBL document CHEMBL1201862, “PubChem BioAssay data set” (2004).
